Test results: ChEMBL document CHEMBL6114988, “Design, synthesis and biological evaluation of dual CDK9/PARP inhibitors for the treatment of cancer” (Eur J Med Chem, 2025)
Values belong to the compound of their own block, whether it stands above or below them.

What was measured:
[1] = target: Poly [ADP-ribose] polymerase 1 (Homo sapiens, UniProt P09874); test: Inhibition of PARP1 (unknown origin) incubated for 1 hr by ELISA
[2] = target: Cyclin-dependent kinase 9 (Homo sapiens, UniProt P50750)
Description: Inhibition of CDK9 (unknown origin) using lipid substrate incubated for 40 mins in presence of ATP by kinase-Glo plus luminescence assay

MDA-MB-231 [3] = test: Induction of apoptosis in human MDA-MB-231 cells assessed as viable cell at 1 uM incubated for 24 hrs by Annexin V-FITC/PI staining based analysis (reference value: 96.3 %); assay type: functional
MDA-MB-231 [4] = test: Induction of cell cycle arrest in human MDA-MB-231 cells assessed as accumulation of cells at G2/M phase at 1 uM incubated for 24 hrs by PI staining based flow cytometric analysis (reference value: 11.3%); assay type: functional
MDA-MB-231 [5] = test: Induction of apoptosis in human MDA-MB-231 cells assessed as necrotic cell at 0.2 uM incubated for 24 hrs by Annexin V-FITC/PI staining based analysis (reference value: 0.10 %); assay type: functional
[6] = Metabolic stability in artificial intestinal fluid assessed as parent compound remaining at 1 mg/ml incubated for 8 hrs by HPLC analysis; assay type: ADME; conditions: read-out: Stability
MDA-MB-231 [7] = test: Induction of apoptosis in human MDA-MB-231 cells assessed as viable cell at 0.2 uM incubated for 24 hrs by Annexin V-FITC/PI staining based analysis (reference value: 96.3 %); assay type: functional
MDA-MB-231 [8] = test: cells; conditions: Homo sapiens, MDA-MB-231, 48 h
Description: Antiproliferative activity against human MDA-MB-231 cells assessed as inhibition of cell proliferation incubated for 48 hrs by CCK-8 assay

MDA-MB-231 [9] = test: Induction of apoptosis in human MDA-MB-231 cells assessed as late apoptotic cell at 0.2 uM incubated for 24 hrs by Annexin V-FITC/PI staining based analysis (reference value: 2.61 %); assay type: functional
MV4-11 = test: Antiproliferative activity against human MV4-11 cells assessed as inhibition of cell proliferation incubated for 48 hrs by CCK-8 assay; assay type: functional, cell-based; conditions: MV4-11, 48 h
[10] = Metabolic stability in rat liver microsomes assessed as half life at 1 mg/ml incubated for 60 min in presence of NADPH by HPLC analysis; assay type: ADME, Microsome
HCT-116 = test: cells; conditions: Homo sapiens, HCT-116, 48 h
Description: Antiproliferative activity against human HCT-116 cells assessed as inhibition of cell proliferation incubated for 48 hrs by CCK-8 assay

MDA-MB-231 [11] = test: Induction of cell cycle arrest in human MDA-MB-231 cells assessed as accumulation of cells at G1 phase at 10 uM incubated for 24 hrs by PI staining based flow cytometric analysis (reference value: 58.1%); assay type: functional
MDA-MB-231 [12] = test: Induction of apoptosis in human MDA-MB-231 cells assessed as necrotic cell at 1 uM incubated for 24 hrs by Annexin V-FITC/PI staining based analysis (reference value: 0.10 %); assay type: functional
MDA-MB-231 [13] = test: Induction of apoptosis in human MDA-MB-231 cells assessed as late apoptotic cell at 10 uM incubated for 24 hrs by Annexin V-FITC/PI staining based analysis (reference value: 2.61 %); assay type: functional
MDA-MB-231 [14] = test: Induction of cell cycle arrest in human MDA-MB-231 cells assessed as accumulation of cells at G2/M phase at 10 uM incubated for 24 hrs by PI staining based flow cytometric analysis (reference value: 11.3%); assay type: functional
[15] = Metabolic stability in artificial gastric fluid assessed as parent compound remaining at 1 mg/ml incubated for 8 hrs by HPLC analysis; assay type: ADME; conditions: read-out: Stability
MDA-MB-231 [16] = test: Induction of apoptosis in human MDA-MB-231 cells assessed as early apoptotic cell at 1 uM incubated for 24 hrs by Annexin V-FITC/PI staining based analysis (reference value: 0.96 %); assay type: functional
MDA-MB-231 [17] = test: Induction of cell cycle arrest in human MDA-MB-231 cells assessed as accumulation of cells at G2/M phase at 0.2 uM incubated for 24 hrs by PI staining based flow cytometric analysis (reference value: 11.3%); assay type: functional
MOLM-13 = test: Antiproliferative activity against human MOLM-13 cells assessed as inhibition of cell proliferation incubated for 48 hrs by CCK-8 assay; assay type: functional, cell-based; conditions: MOLM-13, 48 h
MDA-MB-231 [18] = test: Induction of apoptosis in human MDA-MB-231 cells assessed as late apoptotic cell at 1 uM incubated for 24 hrs by Annexin V-FITC/PI staining based analysis (reference value: 2.61 %); assay type: functional
MDA-MB-231 [19] = test: Induction of apoptosis in human MDA-MB-231 cells assessed as early apoptotic cell at 0.2 uM incubated for 24 hrs by Annexin V-FITC/PI staining based analysis (reference value: 0.96 %); assay type: functional
MDA-MB-231 [20] = test: Induction of cell cycle arrest in human MDA-MB-231 cells assessed as accumulation of cells at S phase at 1 uM incubated for 24 hrs by PI staining based flow cytometric analysis (reference value: 29.2%); assay type: functional
MDA-MB-231 [21] = test: Induction of cell cycle arrest in human MDA-MB-231 cells assessed as accumulation of cells at G1 phase at 0.2 uM incubated for 24 hrs by PI staining based flow cytometric analysis (reference value: 58.1%); assay type: functional
MCF7 = test: cells; conditions: Homo sapiens, MCF7, 48 h
Description: Antiproliferative activity against human MCF7 cells assessed as inhibition of cell proliferation incubated for 48 hrs by CCK-8 assay

MDA-MB-231 [22] = test: Induction of apoptosis in human MDA-MB-231 cells assessed as early apoptotic cell at 10 uM incubated for 24 hrs by Annexin V-FITC/PI staining based analysis (reference value: 0.96 %); assay type: functional
MDA-MB-231 [23] = test: Induction of apoptosis in human MDA-MB-231 cells assessed as viable cell at 10 uM incubated for 24 hrs by Annexin V-FITC/PI staining based analysis (reference value: 96.3 %); assay type: functional
MDA-MB-231 [24] = test: Induction of cell cycle arrest in human MDA-MB-231 cells assessed as accumulation of cells at S phase at 10 uM incubated for 24 hrs by PI staining based flow cytometric analysis (reference value: 29.2%); assay type: functional
MDA-MB-231 [25] = test: Induction of apoptosis in human MDA-MB-231 cells assessed as necrotic cell at 10 uM incubated for 24 hrs by Annexin V-FITC/PI staining based analysis (reference value: 0.10 %); assay type: functional
HeLa = test: cells; conditions: Homo sapiens, 48 h
Description: Antiproliferative activity against human HeLa cells assessed as inhibition of cell proliferation incubated for 48 hrs by CCK-8 assay

MDA-MB-231 [26] = test: Induction of cell cycle arrest in human MDA-MB-231 cells assessed as accumulation of cells at G1 phase at 1 uM incubated for 24 hrs by PI staining based flow cytometric analysis (reference value: 58.1%); assay type: functional
MDA-MB-231 [27] = test: Induction of cell cycle arrest in human MDA-MB-231 cells assessed as accumulation of cells at S phase at 0.2 uM incubated for 24 hrs by PI staining based flow cytometric analysis (reference value: 29.2%); assay type: functional
[28] = Metabolic stability in plasma assessed as parent compound remaining incubated for 3 hrs by HPLC analysis; assay type: ADME, cell-free; conditions: read-out: Stability

Sequence of Cyclin-dependent kinase 9 (P50750 whole entry): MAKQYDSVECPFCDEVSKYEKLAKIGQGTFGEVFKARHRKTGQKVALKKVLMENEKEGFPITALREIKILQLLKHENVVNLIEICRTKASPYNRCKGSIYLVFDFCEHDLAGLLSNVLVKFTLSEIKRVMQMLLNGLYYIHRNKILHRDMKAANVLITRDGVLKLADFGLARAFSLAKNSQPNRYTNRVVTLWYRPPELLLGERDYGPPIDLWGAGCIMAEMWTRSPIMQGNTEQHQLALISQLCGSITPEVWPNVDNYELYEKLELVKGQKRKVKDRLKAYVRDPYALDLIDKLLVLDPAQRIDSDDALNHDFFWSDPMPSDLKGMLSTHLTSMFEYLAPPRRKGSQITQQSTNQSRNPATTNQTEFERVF
Sequence of Poly [ADP-ribose] polymerase 1 (P09874 whole entry): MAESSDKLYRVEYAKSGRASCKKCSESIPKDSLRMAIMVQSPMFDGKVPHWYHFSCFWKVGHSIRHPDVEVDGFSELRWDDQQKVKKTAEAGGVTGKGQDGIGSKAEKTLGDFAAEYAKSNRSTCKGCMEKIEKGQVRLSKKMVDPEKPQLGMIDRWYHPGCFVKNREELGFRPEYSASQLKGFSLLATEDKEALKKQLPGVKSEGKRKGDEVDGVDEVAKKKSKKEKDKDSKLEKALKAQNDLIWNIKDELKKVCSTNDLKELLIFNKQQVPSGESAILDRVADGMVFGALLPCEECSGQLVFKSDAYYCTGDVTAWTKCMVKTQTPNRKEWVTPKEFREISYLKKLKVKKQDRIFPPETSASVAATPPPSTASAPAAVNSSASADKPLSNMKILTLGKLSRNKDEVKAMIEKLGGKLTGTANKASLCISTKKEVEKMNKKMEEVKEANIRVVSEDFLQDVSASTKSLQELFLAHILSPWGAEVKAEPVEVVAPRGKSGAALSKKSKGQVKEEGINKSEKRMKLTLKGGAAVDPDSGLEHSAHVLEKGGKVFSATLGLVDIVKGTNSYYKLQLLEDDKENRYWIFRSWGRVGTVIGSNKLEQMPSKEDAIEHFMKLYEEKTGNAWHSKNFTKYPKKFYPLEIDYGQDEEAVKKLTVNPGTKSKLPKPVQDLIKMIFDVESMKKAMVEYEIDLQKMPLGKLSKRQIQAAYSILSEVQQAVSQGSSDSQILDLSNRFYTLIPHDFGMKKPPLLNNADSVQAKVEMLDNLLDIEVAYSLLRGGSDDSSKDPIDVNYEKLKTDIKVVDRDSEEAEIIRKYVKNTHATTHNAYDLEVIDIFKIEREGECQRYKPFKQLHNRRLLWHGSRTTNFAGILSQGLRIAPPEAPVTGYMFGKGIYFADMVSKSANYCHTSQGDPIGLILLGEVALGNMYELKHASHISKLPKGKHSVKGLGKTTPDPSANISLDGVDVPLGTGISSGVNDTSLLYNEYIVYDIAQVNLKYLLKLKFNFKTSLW

SMILES: COc1cc(F)ccc1-c1cc(Nc2cc(CN3CCN(C(=O)c4cc(Cc5n[nH]c(=O)c6ccccc56)ccc4F)CC3)ccn2)ncc1F
- IC50 [1]: 43 nM
- IC50 [2]: 17 nM

SMILES: CCOc1cc(F)ccc1-c1cc(Nc2cc(CN3CCN(C(=O)c4cc(Cc5n[nH]c(=O)c6ccccc56)ccc4F)CC3)ccn2)ncn1
- Activity (MDA-MB-231 [3]): 82.8%
- Activity (MDA-MB-231 [4]): 36.4%
- Activity (MDA-MB-231 [5]): 0.81%
- remaining at 8 h, 1 mg/ml [6]: 96.7%
- Activity (MDA-MB-231 [7]): 94.9%
- IC50 (MDA-MB-231 [8]): 440 nM
- Activity (MDA-MB-231 [9]): 2.67%
- IC50 (MV4-11): 3830 nM
- half-life at 1 mg/ml [10]: 2.44 h
- IC50 (HCT-116): 130 nM
- Activity (MDA-MB-231 [11]): 25.3%
- Activity (MDA-MB-231 [12]): 1.78%
- Activity (MDA-MB-231 [13]): 8.01%
- Activity (MDA-MB-231 [14]): 29.1%
- IC50 [1]: 6 nM
- remaining at 8 h, 1 mg/ml [15]: 94.1%
- Activity (MDA-MB-231 [16]): 7.87%
- Activity (MDA-MB-231 [17]): 27.9%
- IC50 (MOLM-13): 690 nM
- IC50 [2]: 15 nM
- Activity (MDA-MB-231 [18]): 7.54%
- Activity (MDA-MB-231 [19]): 1.64%
- Activity (MDA-MB-231 [20]): 31.1%
- Activity (MDA-MB-231 [21]): 33.1%
- IC50 (MCF7): 670 nM
- Activity (MDA-MB-231 [22]): 14.8%
- Activity (MDA-MB-231 [23]): 76.1%
- Activity (MDA-MB-231 [24]): 45.2%
- Activity (MDA-MB-231 [25]): 1.07%
- IC50 (HeLa): 250 nM
- Activity (MDA-MB-231 [26]): 34.8%
- Activity (MDA-MB-231 [27]): 40%
- remaining at 3 h [28]: 94.6%

SMILES: O=C(c1cc(Cc2n[nH]c(=O)c3ccccc23)ccc1F)N1CCN(Cc2ccnc(Nc3cc(-c4ccc(F)c5ccoc45)c(F)cn3)c2)CC1
- IC50 [1]: 118 nM
- IC50 [2]: 54 nM

SMILES: O=C(c1cc(Cc2n[nH]c(=O)c3ccccc23)ccc1F)N1CCN(Cc2ccnc(Nc3cc(-c4ccc(F)c5ccoc45)ncn3)c2)CC1
- IC50 [1]: 107 nM
- IC50 [2]: 118 nM

More lines, in order of falling IC50 [1], values ahead:

- IC50 [1]: 32 nM
- IC50 [2]: 59 nM
SMILES: CCOc1cc(F)ccc1-c1cc(Nc2cc(CN3CCN(C(=O)c4cc(Cc5n[nH]c(=O)c6ccccc56)ccc4F)CC3)ccn2)ncc1F

- IC50 [1]: 30 nM
- IC50 [2]: 31 nM
SMILES: COc1ccc(-c2cc(Nc3cc(CN4CCN(C(=O)c5cc(Cc6n[nH]c(=O)c7ccccc67)ccc5F)CC4)ccn3)ncc2F)c(OC)c1
